Data from paper PMC3707518 (Journal of nuclear medicine : official publication, Society …, 2010).
“And” between values parts separate entries of the source, which are not always exact repeats. Equal entries are not always repeated.

Experiments:
[1] = tested on: β2*-nAChR; details: cited from earlier work
[2] = target: T1, β2*-nAChRs (Homo sapiens, UniProt P17787); assay: ^123I-5-IA SPECT regional uptake; type: in vivo
[3] = tested on: β2*-nAChRs; details: nonhuman primates, cited from earlier work
[4] = cited from earlier work
[5] = target: T1, β2*-nAChRs; details: 3 h after smoking challenge; representative subject, Fig. 4
[6] = target: T1, β2*-nAChRs; details: 3.1 h; cited from earlier work
[7] = Plasma nicotine and cotinine levels, smoking challenge and abstinence check
[8] = dependent smokers; cited from earlier work

T1 sequence (P17787 26-502): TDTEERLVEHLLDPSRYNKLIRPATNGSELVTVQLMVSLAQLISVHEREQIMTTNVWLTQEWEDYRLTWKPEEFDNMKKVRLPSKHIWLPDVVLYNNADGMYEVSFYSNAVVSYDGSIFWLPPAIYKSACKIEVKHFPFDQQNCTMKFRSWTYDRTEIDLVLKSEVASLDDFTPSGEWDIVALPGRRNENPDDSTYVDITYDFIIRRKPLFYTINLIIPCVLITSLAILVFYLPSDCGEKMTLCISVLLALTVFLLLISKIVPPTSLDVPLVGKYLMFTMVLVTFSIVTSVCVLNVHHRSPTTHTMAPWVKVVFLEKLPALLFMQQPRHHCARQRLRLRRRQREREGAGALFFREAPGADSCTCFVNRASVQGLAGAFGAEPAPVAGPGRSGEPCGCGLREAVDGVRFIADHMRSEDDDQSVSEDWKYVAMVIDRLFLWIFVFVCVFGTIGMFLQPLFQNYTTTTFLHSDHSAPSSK

Structure (SMILES): c1cncc(OC[C@@H]2CCN2)c1 [A-85380, 3-[2(S)-2-azetidinylmethoxy]pyridine]
- Affinity [1]: high affinity
- Selectivity for the β2*-nAChR [1]: high selectivity

Structure (SMILES): [123I]c1cncc(OC[C@@H]2CCN2)c1 [^123I-5-IA, 5-^123I-iodo-85380]
- Nondisplaceable uptake VND/fp ([2]; average and range across subjects, brain, after smoking to satiety): 19.4 ± 5.8 mL·cm^−3 and 15–28 mL·cm^−3
- Average VND without correcting for fp ([2]; not corrected for plasma free fraction): 7.03 ± 1.92 kBq/cm^3
- Nondisplaceable binding in the thalamus ([3]; inferred from specific binding): about 30%
- Specific binding in the thalamus [3]: about 70%
- Safety [4]: safe and nontoxic

Structure (SMILES): CN1CCC[C@H]1c1cccnc1 [nicotine]
- Maximal occupancy [5]: 69.1%
- Nicotine in blood at the time of greatest occupancy [6]: less than 4 ng/mL
- Time of highest nicotine concentration ([7]; after initiation of tobacco smoking, representative subject, Fig. 2B): 20 min
- Blood nicotine area under curve (60 min) ([7]; after smoking to satiety, individual subjects 1-10 and mean ± SD): 4,864.0 and 3,764.0 and 8,273.0 and 8,124.0 and 8,544.3 ± 7,068.8 and 3,470.0 and 7,153.0 and 7,840.0 and 27,700.0 and 4,488.0 and 9,767.0
- Time for nicotine from tobacco smoke to reach the brain after inhalation [8]: ≤ 30 s
